Data: US4504580A, “Antibiotics produced by fermentation of a novel strain of Streptomyces hygroscopicus” (Bristol-Myers Company, priority 1983, dated 1985)
Values after ≈ are worked out from the molar mass of the structure shown. Where two headings read alike, the source gives them in different places.

Experiments:
Proteus vulgaris A9436 = test: MIC by serial two-fold agar dilution, P. vulgaris A9436; type: cell-based; conditions: Proteus vulgaris, A9436; Table 7; Mueller-Hinton agar; read-out: MIC
Outline: (§1)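 Inocula, 10^4-diluted overnight broth cultures, are applied via Steer's multi-inoculating device to agar containing serially halved compound concentrations.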

[1] = test system: Streptococcus pyogenes A20201; test: MIC by serial two-fold agar dilution, S. pyogenes A20201; type: cell-based; conditions: Streptococcus pyogenes, A20201; Table 8; GC medium; read-out: MIC
Protocol: (§2) The minimum inhibitory concentrations (MIC) of Bu-2659A, B, C, D and E were determined for a variety of gram-positive and gram-negative bacteria by the serial two-fold agar dilution method using the Steer's multi-inoculating apparatus. The inoculum was standardized as a 10^4 dilution of an overnight culture of the test organisms in Heart Infusion Broth (Difco). […] Reference antibiotics utilized in these tests included commercially available neomycin as well as its components, neomycins B and C [as used herein, the term "neomycin" means the commercial product containing neomycins B and C at an approximate ratio of 7:3], paromomycin [the commercial product containing >90% of paromomycin I and <10% of paromomycin II] and ribostamycin.

[2] = test system: Neisseria meningitidis A21496; test: MIC by serial two-fold agar dilution, N. meningitidis A21496; type: cell-based; conditions: Neisseria meningitidis, A21496; Table 8; GC medium; read-out: MIC
Protocol: as §2

[3] = test system: Micrococcus luteus PCI 1001; test: MIC by serial two-fold agar dilution, M. luteus PCI 1001; type: cell-based; conditions: Micrococcus luteus, PCI1001; Table 7; Mueller-Hinton agar; read-out: MIC
Outline: as §1

Escherichia coli Juhl = test: MIC by serial two-fold agar dilution, E. coli Juhl; type: cell-based; conditions: Escherichia coli; Table 7; Mueller-Hinton agar; read-out: MIC
Outline: as §1

Acute toxicity in mice = type: in vivo; conditions: for LD50: mouse, in vivo, mice, read-out: LD50
Protocol: The acute toxicity of Bu-2659A was determined in mice by intravenous, intraperitoneal and subcutaneous routes. Neomycin also was tested for comparison purposes. […] The toxicity of Bu-2659A was approximately 1/3 that of neomycin in terms of LD50 values, thus presenting a potential clinical advantage for Bu-2659A.

[4] = test system: Streptococcus pyogenes A20201; test: Experimental systemic infection in mice, S. pyogenes A20201; type: in vivo; conditions: Streptococcus pyogenes, A20201, 96 h, im, single treatment, 4 days, read-out: PD50
Protocol: (§3) The in vivo activity of Bu-2659A was assessed by experimental systemic infection in mice. The pathogenic bacteria used in the in vivo tests were E. coli Juhl, K. pneumoniae D-11, P. mirabilis A9906, S. aureus Smith and S. pyogenes A20201. Mice were challenged intraperitoneally with approximately 100×LD50 dose of the pathogens in a 5% suspension of hog gastric mucin (American Laboratories, Omaha, Neb.). A single intramuscular treatment with the antibiotic was given immediately after the bacterial challenge. […] Neomycin was comparatively tested as a reference compound. […] In terms of PD50 value Bu-2659A was about one-half as active as neomycin against infections with S. aureus and S. pyogenes.

[5] = test system: Streptococcus pneumoniae Type I; test: MIC by serial two-fold agar dilution, S. pneumoniae Type I; type: cell-based; conditions: Streptococcus pneumoniae; Table 8; GC medium; read-out: MIC
Protocol: as §2

[6] = test system: Serratia marcescens A20019; test: MIC by serial two-fold agar dilution, S. marcescens A20019; type: cell-based; conditions: Serratia marcescens, A20019; Table 7; Mueller-Hinton agar; read-out: MIC
Outline: as §1

[7] = test system: Escherichia coli JR35/C600; test: MIC, aminoglycoside-resistant E. coli JR35/C600; type: cell-based; conditions: Escherichia coli, JR35/C600
Outline: as §1

Mycobacterium ranae = test: MIC by serial two-fold agar dilution, M. ranae; type: cell-based; conditions: Mycobacterium; Table 8; No. 1001 medium; read-out: MIC
Protocol: as §2

[8] = test system: Pseudomonas aeruginosa A20896; test: MIC, aminoglycoside-resistant P. aeruginosa A20896; type: cell-based; conditions: Pseudomonas aeruginosa, A20896; Table 9; inactivating enzyme AAC(3)-II; Mueller-Hinton agar; read-out: MIC
Outline: as §1

[9] = test system: Haemophilus influenzae A9729; test: MIC by serial two-fold agar dilution, H. influenzae A9729; type: cell-based; conditions: Haemophilus influenzae, A9729; Table 8; GC medium; read-out: MIC
Protocol: as §2

[10] = test system: Pseudomonas aeruginosa A20601; test: MIC, aminoglycoside-resistant P. aeruginosa A20601; type: cell-based; conditions: Pseudomonas aeruginosa, A20601; Table 9; inactivating enzymes AAC(3)-I, APH(3')-II; Mueller-Hinton agar; read-out: MIC
Outline: as §1

Proteus mirabilis A9906 = test: MIC by serial two-fold agar dilution, P. mirabilis A9906; type: cell-based; conditions: Proteus mirabilis, A9906; Table 7; Mueller-Hinton agar; read-out: MIC
Outline: as §1

[11] = test system: Staphylococcus aureus A20239; test: MIC, aminoglycoside-resistant S. aureus A20239; type: cell-based; conditions: Staphylococcus aureus, A20239; Table 9; inactivating enzyme APH(3')-I,II; Mueller-Hinton agar; read-out: MIC
Outline: as §1

[12] = test system: Pseudomonas aeruginosa A9930; test: MIC by serial two-fold agar dilution, P. aeruginosa A9930; type: cell-based; conditions: Pseudomonas aeruginosa, A9930; Table 7; Mueller-Hinton agar; read-out: MIC
Outline: as §1

[13] = test system: Neisseria and Haemophilus species; test: Antibacterial activity (MIC), overall, Neisseria and Haemophilus, Table 8; type: cell-based; conditions: compared with neomycin
Protocol: as §2

Proteus mirabilis A9554 = test: MIC by serial two-fold agar dilution, P. mirabilis A9554; type: cell-based; conditions: Proteus mirabilis, A9554; Table 7; Mueller-Hinton agar; read-out: MIC
Outline: as §1

[14] = test system: Staphylococcus aureus Smith; test: Experimental systemic infection in mice, S. aureus Smith; type: in vivo; conditions: Staphylococcus aureus, 96 h, im, single treatment, 4 days, read-out: PD50
Protocol: as §3

Mycobacterium phlei = test: MIC by serial two-fold agar dilution, M. phlei; type: cell-based; conditions: Mycolicibacterium phlei; Table 8; No. 1001 medium; read-out: MIC
Protocol: as §2

[15] = test system: Klebsiella pneumoniae D11; test: MIC by serial two-fold agar dilution, K. pneumoniae D11; type: cell-based; conditions: Klebsiella pneumoniae, D11; Table 7; Mueller-Hinton agar; read-out: MIC
Outline: as §1

[16] = test system: Klebsiella pneumoniae D-11; test: Experimental systemic infection in mice, K. pneumoniae D-11; type: in vivo; conditions: Klebsiella pneumoniae, D11, 96 h, im, single treatment, 4 days, read-out: PD50
Protocol: as §3

Proteus rettgeri A15167 = test: MIC by serial two-fold agar dilution, P. rettgeri A15167; type: cell-based; conditions: Providencia rettgeri, A15167; Table 7; Mueller-Hinton agar; read-out: MIC
Outline: as §1

[17] = test system: Neisseria gonorrhoeae A20143; test: MIC by serial two-fold agar dilution, N. gonorrhoeae A20143; type: cell-based; conditions: Neisseria gonorrhoeae, A20143; Table 8; GC medium; read-out: MIC
Protocol: as §2

[18] = test system: Staphylococcus aureus 209P; test: MIC by serial two-fold agar dilution, S. aureus 209P; type: cell-based; conditions: Staphylococcus aureus, 209P; Table 7; Mueller-Hinton agar; read-out: MIC
Outline: as §1

**Q.** Which results are given for `NC[C@@H]1O[C@H](O[C@H]2[C@@H](O)[C@H](O[C@@H]3[C@@H](O)[C@H](O)C[C@H](N)[C@H]3O[C@H]3O[C@H](CN)[C@@H](O)[C@H](O)[C@H]3N)O[C@@H]2CO)[C@H](N)[C@@H](O)[C@@H]1O` [Bu-2659A, 1-deamino-1-hydroxyneomycin B]?
**A.** MIC (Proteus vulgaris A9436): 0.4 µg/mL (≈ 0.65 µM); MIC [1]: 25 µg/mL (≈ 40.6 µM); MIC [2]: 50 µg/mL (≈ 81.2 µM); MIC [3]: 3.1 µg/mL (≈ 5.04 µM); MIC (Escherichia coli Juhl): 3.1 µg/mL (≈ 5.04 µM); acute toxicity compared with neomycin, in words (Acute toxicity in mice; all routes of administration): significantly less toxic than neomycin; toxicity relative to neomycin in terms of LD50 values (Acute toxicity in mice; intravenous, intraperitoneal, subcutaneous): approximately 1/3; LD50 (Acute toxicity in mice; ip, intraperitoneal): 460 mg/kg; LD50 (Acute toxicity in mice; sc, subcutaneous): 720 mg/kg; LD50 (Acute toxicity in mice; intravenous): 110 mg/kg; ED50 [4]: 50 mg/kg; MIC [5]: 25 µg/mL (≈ 40.6 µM); MIC [6]: 3.1 µg/mL (≈ 5.04 µM); MIC [7]: 25 µg/mL (≈ 40.6 µM); MIC (Mycobacterium ranae): 0.4 µg/mL (≈ 0.65 µM); MIC [8]: > 100 µg/mL; MIC [9]: 50 µg/mL (≈ 81.2 µM); MIC [10]: 6.3 µg/mL (≈ 10.2 µM); MIC (Proteus mirabilis A9906): 0.8 µg/mL (≈ 1.3 µM); MIC [11]: 12.5 µg/mL (≈ 20.3 µM); MIC [12]: 1.6 µg/mL (≈ 2.6 µM); activity against Neisseria and Haemophilus, in words [13]: more active than neomycin; MIC (Proteus mirabilis A9554): 0.8 µg/mL (≈ 1.3 µM); ED50 [14]: 0.63 mg/kg; MIC (Mycobacterium phlei): 0.1 µg/mL (≈ 0.162 µM); MIC [15]: 0.2 µg/mL (≈ 0.325 µM); ED50 [16]: 1.1 mg/kg; MIC (Proteus rettgeri A15167): 0.8 µg/mL (≈ 1.3 µM); MIC [17]: 50 µg/mL (≈ 81.2 µM); MIC [18]: 0.8 µg/mL (≈ 1.3 µM)
